# Source: US20230049231A1 (priority 2019, published 2023)
# Biological target: T1, Kv1.3 potassium channel (Homo sapiens, UniProt P22001)
# T1 construct: expressed in transfected cells
# Test: Kv1.3 potassium channel blocker activity, automated whole-cell patch clamp (Patchliner)
# Type: cell-based
# Details: CHO-K1 cells stably expressing Kv1.3; 100 ms pulses from -90 mV to +40 mV, 0.1 Hz
# Experimental: This assay is used to evaluate the disclosed compounds' activities as Kv1.3 potassium channel blockers.
# CHO-K1 cells stably expressing Kv1.3 were grown in DMEM containing 10% heat-inactivated FBS, 1 mM sodium pyruvate, 2 mM L-glutamine and G418 (500 μg/ml). Cells were grown in culture flasks at 37° C. in a 5% CO2-humidified incubator.
# The cells were bathed in an extracellular solution containing 140 mM NaCl, 4 mM KCl, 2 mM CaCl2), 1 mM MgCl2, 5 mM glucose, and 10 mM HEPES; pH adjusted to 7.4 with NaOH; 295-305 mOsm. The internal solution contained 50 mM KCl, 10 mM NaCl, 60 mM KF, 20 mM EGTA, and 10 mM HEPES; pH adjusted to 7.2 with KOH; 285 mOsm. All compounds were dissolved in DMSO at 30 mM. Compound stock solutions were freshly diluted with external solution to concentrations of 30 nM, 100 nM, 300 nM, 1 μM, 3 μM, 10 μM, 30 μM and 100 μM. The highest content of DMSO (0.3%) was present in 100 μM.
# The currents were evoked by applying 100 ms depolarizing pulses from −90 mV (holding potential) to +40 mV were applied with 0.1 Hz frequency. Control (compound-free) and compound pulse trains for each compound concentration applied contained 20 pulses.
# 10-second breaks were used between pulse trains (see Table 2 below).
# Whole-cell current recordings and compound application were enabled by means of an automated patch clamp platform Patchliner (Nanion Technologies GmbH). EPC 10 patch clamp amplifier (HEKA Elektronik Dr. Schulze GmbH) along with Patchmaster software (HEKA Elektronik Dr. Schulze GmbH) was used for data acquisition. Data were sampled at 10 kHz without filtering. Passive leak currents were subtracted online using a P/4 procedure (HEKA Elektronik Dr. Schulze GmbH). Increasing compound concentrations were applied consecutively to the same cell without washouts in between. Total compound incubation time before the next pulse train was not longer than 10 seconds. Peak current inhibition was observed during compound equilibration.
# AUC and peak values were obtained with Patchmaster (HEKA Elektronik Dr. Schulze GmbH). To determine IC50, the last single pulse in the pulse train corresponding to a given compound concentration was used. Obtained AUC and peak values in the presence of compound were normalized to control values in the absence of compound. Using Origin (OridinLab), IC50 was derived from data fit to Hill equation: Icompound/Icontrol=(100−A)/(1+([compound]/IC50)nH)+A, where IC50 value is the concentration at which current inhibition is half-maximal, [compound] is the applied compound concentration, A is the fraction of current that is not blocked and nH is the Hill coefficient.
# T1 sequence (P22001 whole entry): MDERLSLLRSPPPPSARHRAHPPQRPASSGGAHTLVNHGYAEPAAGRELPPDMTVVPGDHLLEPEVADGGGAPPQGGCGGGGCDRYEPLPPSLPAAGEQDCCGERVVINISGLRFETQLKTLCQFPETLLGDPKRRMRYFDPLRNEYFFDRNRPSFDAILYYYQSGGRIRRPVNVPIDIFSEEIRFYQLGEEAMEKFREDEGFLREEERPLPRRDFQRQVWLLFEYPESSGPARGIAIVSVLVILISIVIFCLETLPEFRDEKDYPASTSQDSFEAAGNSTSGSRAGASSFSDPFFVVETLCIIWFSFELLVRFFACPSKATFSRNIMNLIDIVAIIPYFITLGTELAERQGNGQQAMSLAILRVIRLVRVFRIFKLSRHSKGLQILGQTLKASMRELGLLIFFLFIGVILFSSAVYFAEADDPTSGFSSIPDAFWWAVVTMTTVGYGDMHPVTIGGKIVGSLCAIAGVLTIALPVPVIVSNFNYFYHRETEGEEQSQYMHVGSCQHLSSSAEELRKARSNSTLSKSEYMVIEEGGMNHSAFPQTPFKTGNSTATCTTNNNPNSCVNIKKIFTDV
row,IC50 [µM],SMILES
1,< 1,"C[C@@H](CO)C(=O)N1CC(=O)N2CC[C@H](c3c(O)ccc(Cl)c3Cl)C[C@@H]2C1 [Compound 3, (8S,9aR)-8-(2,3-dichloro-6-hydroxyphenyl)-2-((S)-3-hydroxy-2-methylpropanoyl)octahydro-4H-pyrido[1,2-a]pyrazin-4-one]"
2,< 1,"C[C@@H](O)CC(=O)N1CC(=O)N2C[C@@H](c3c(O)ccc(Cl)c3Cl)C[C@H]2C1 [Compound 53, (7R,8aS)-7-(2,3-dichloro-6-hydroxyphenyl)-2-[(3R)-3-hydroxybutanoyl]-hexahydropyrrolo[1,2-a]pyrazin-4-one]"
3,< 1,"O=C(CO)N1CC(=O)N2CC[C@H](c3c(O)ccc(Cl)c3Cl)C[C@@H]2C1 [Compound 48, (8S,9aR)-8-(2,3-dichloro-6-hydroxyphenyl)-2-(2-hydroxyacetyl)-hexahydro-1H-pyrido[1,2-a]pyrazin-4-one]"
4,< 10,"O=C(CO)N1CC(=O)N2C[C@H](c3c(O)ccc(Cl)c3Cl)CC[C@@H]2C1 (relative stereo) [Compound 26, (7S,9aR)-rel-7-(2,3-dichloro-6-hydroxyphenyl)-2-(2-hydroxyacetyl)-hexahydro-1H-pyrido[1,2-a]pyrazin-4-one]"
5,< 10,"C[C@@H]1C(=O)N2CC[C@@H](c3c(O)ccc(Cl)c3Cl)C[C@H]2CN1C(=O)CO [Compound 12, (3R,8R,9aS)-8-(2,3-dichloro-6-hydroxyphenyl)-2-(2-hydroxyacetyl)-3-methyloctahydro-4H-pyrido[1,2-a]pyrazin-4-one]"
6,< 1,"CN(C)C(=O)N1CC(=O)N2C[C@@H](c3c(O)ccc(Cl)c3Cl)C[C@H]2C1 [Compound 30, (7R,8aS)-7-(2,3-dichloro-6-hydroxyphenyl)-N,N-dimethyl-4-oxohexahydropyrrolo[1,2-a]pyrazine-2(1H)-carboxamide]"
7,< 10,"O=C1N[C@H](CO)CN2CC[C@H](c3c(O)ccc(Cl)c3Cl)C[C@H]12 [Compound 19, (3S,8S,9aR)-8-(2,3-dichloro-6-hydroxyphenyl)-3-(hydroxymethyl)-octahydropyrido[1,2-a]pyrazin-1-one]"
8,< 1,"C[C@H]1C(=O)N2C[C@@H](c3c(O)ccc(Cl)c3Cl)C[C@H]2CN1C(=O)CO [Compound 60, (3S,7R,8aS)-7-(2,3-dichloro-6-hydroxyphenyl)-2-(2-hydroxyacetyl)-3-methyl-hexahydropyrrolo[1,2-a]pyrazin-4-one]"
9,< 10,"O=C1N[C@H](CO)CN2CC[C@@H](c3c(O)ccc(Cl)c3Cl)C[C@@H]12 [Compound 6, (3S,8R,9aS)-8-(2,3-dichloro-6-hydroxyphenyl)-3-(hydroxymethyl)-octahydropyrido[1,2-a]pyrazin-1-one]"
10,< 1,"O=C(CO)N1CC(=O)N2CC[C@H](c3c(O)cc(Cl)c(Cl)c3Cl)C[C@@H]2C1 [Compound 5, (8S,9aR)-2-(2-hydroxyacetyl)-8-(2,3,4-trichloro-6-hydroxyphenyl)-hexahydro-1H-pyrido[1,2-a]pyrazin-4-one]"
11,< 1,"O=C([C@@H](O)CO)N1CC(=O)N2CC[C@H](c3c(O)ccc(Cl)c3Cl)C[C@@H]2C1 [Compound 51, (8S,9aR)-8-(2,3-dichloro-6-hydroxyphenyl)-2-[(2S)-2,3-dihydroxypropanoyl]-hexahydro-1H-pyrido[1,2-a]pyrazin-4-one]"

# Same assay, conditions: Kv1.3 potassium channel, whole-cell patch clamp
row,IC50 [µM],SMILES
1,< 1,"N#C[C@@H]1CC(=O)N2C[C@@H](c3c(O)ccc(Cl)c3Cl)C[C@H]2C1 (single isomer, unassigned) [Compound 228]"
2,< 10,"O=C1N(CCO)C[C@@H]2C[C@H](c3c(O)ccc(Cl)c3Cl)CN12 [Compound 290, (6R,7aS)-6-(2,3-dichloro-6-hydroxyphenyl)-2-(2-hydroxyethyl)hexahydro-3H-pyrrolo[1,2-c]imidazol-3-one]"
3,< 1,"O=C1OC[C@@H]2C[C@H](c3c(O)ccc(Cl)c3Cl)CCN12 [Compound 252, (7R,8aS)-7-(2,3-dichloro-6-hydroxyphenyl)-hexahydro-[1,3]oxazolo[3,4-a]pyridin-3-one]"
4,< 1,"O=C1C(CO)C[C@@H]2C[C@H](c3c(O)ccc(Cl)c3Cl)CN12 (stereo partly drawn) [Compound 247, (6R,7aS)-6-(2,3-dichloro-6-hydroxyphenyl)-2-(hydroxymethyl)-hexahydropyrrolizin-3-one]"
5,< 1,"O=C1CC[C@@H]2C[C@H](c3c(O)ccc(Cl)c3Cl)CN12 [Compound 244, (6R,7aR)-6-(2,3-dichloro-6-hydroxyphenyl)-hexahydropyrrolizin-3-one]"
6,< 1,"CC(C)(O)[C@H]1OC(=O)N2C[C@@H](c3c(O)ccc(Cl)c3Cl)C[C@@H]12 (single isomer, unassigned) [Compound 255]"
7,< 1,"O=C1C[C@@H](c2cc[nH]n2)C[C@@H]2C[C@H](c3c(O)ccc(Cl)c3Cl)CN12 (single isomer, unassigned) [Compound 213]"
8,< 1,"O=C1[C@@H](O)C[C@@H]2C[C@H](c3c(O)ccc(Cl)c3Cl)CN12 (single isomer, unassigned) [Compound 245]"
9,< 1,"NC(=O)[C@@H]1CC(=O)N2C[C@@H](c3c(O)ccc(Cl)c3Cl)C[C@H]2C1 (single isomer, unassigned) [Compound 230]"
10,< 1,"CC(=O)NCC1OC[C@@H]2C[C@H](c3c(O)ccc(Cl)c3Cl)CCN2C1=O (stereo partly drawn) [Compound 186, N-[[(8R,9aS)-8-(2,3-dichloro-6-hydroxyphenyl)-4-oxo-hexahydro-1H-pyrido[2,1-c][1,4]oxazin-3-yl]methyl]acetamide]"
11,< 1,"O=C(O)C1CC(=O)N2C[C@@H](c3c(O)ccc(Cl)c3Cl)C[C@H]2C1 (stereo partly drawn) [Compound 229, (2R,8aS)-2-(2,3-dichloro-6-hydroxyphenyl)-5-oxo-hexahydro-1H-indolizine-7-carboxylic acid]"
12,< 1,"O=C1[C@H](O)C[C@@H]2C[C@H](c3c(O)ccc(Cl)c3Cl)CN12 (single isomer, unassigned) [Compound 246]"
13,< 10,"CN1C[C@@H]2C[C@H](c3c(O)ccc(Cl)c3Cl)CN2C1=O [Compound 291, (6R,7aS)-6-(2,3-dichloro-6-hydroxyphenyl)-2-methyl-tetrahydro-1H-pyrrolo[1,2-c]imidazol-3-one]"
14,< 10,"O=C1CCCN1CC1OC[C@@H]2C[C@H](c3c(O)ccc(Cl)c3Cl)CCN2C1=O (stereo partly drawn) [Compound 184, 1-[[(8R,9aS)-8-(2,3-dichloro-6-hydroxyphenyl)-4-oxo-hexahydro-1H-pyrido[2,1-c][1,4]oxazin-3-yl]methyl]pyrrolidin-2-one]"

# The next lines start with the molecule.
row,SMILES,IC50 [µM]
1,"C[C@@H]1[C@@H]2C[C@H](c3c(O)ccc(Cl)c3Cl)CCN2C(=O)CN1C(=O)CO (single isomer, unassigned; isomer 1) [Compound 83]",< 10
2,"O=C(CO)N1CC[C@@H]2C[C@H](c3c(O)ccc(Cl)c3Cl)CN2C(=O)C1 [Compound 90, (8R,9aS)-8-(2,3-dichloro-6-hydroxyphenyl)-3-(2-hydroxyacetyl)-hexahydro-1H-pyrrolo[1,2-d][1,4]diazepin-5-one]",< 1
3,"O=C1NCCC1N1CC(=O)N2C[C@@H](c3c(O)ccc(Cl)c3Cl)C[C@H]2C1 (stereo partly drawn) [Compound 109, 3-[(7R,8aS)-7-(2,3-dichloro-6-hydroxyphenyl)-4-oxo-hexahydropyrrolo [1,2-a]pyrazin-2-yl]pyrrolidin-2-one]",< 1
4,"O=C1CN(C2CC[C@H](O)[C@@H]2O)C[C@@H]2C[C@H](c3c(O)ccc(Cl)c3Cl)CN12 (relative stereo) [Compound 135, (7R,8aS)-7-(2,3-dichloro-6-hydroxyphenyl)-2-[(2R,3S)-rel-2,3-dihydroxycyclopentyl]-hexahydropyrrolo [1,2-a]pyrazin-4-one]",< 1
5,"O=C1CN(c2ccc(CO)cn2)C[C@@H]2C[C@H](c3c(O)ccc(Cl)c3Cl)CN12 [Compound 168, (7R,8aS)-7-(2,3-dichloro-6-hydroxyphenyl)-2-[5-(hydroxymethyl)pyridin-2-yl]-hexahydropyrrolo[1,2-a]pyrazin-4-one]",< 1
6,"Nc1cnc(N2CC(=O)N3C[C@@H](c4c(O)ccc(Cl)c4Cl)C[C@H]3C2)nc1 [Compound 170, (7R,8aS)-2-(5-aminopyrimidin-2-yl)-7-(2,3-dichloro-6-hydroxyphenyl)-hexahydropyrrolo[1,2-a]pyrazin-4-one]",< 1
7,O=C1CN(c2ncccc2CO)C[C@@H]2C[C@H](c3c(O)ccc(Cl)c3Cl)CN12 [Compound 174],< 10
